Test results from PubChem BioAssay AID328 (DTP/NCI, 2004).
Values joined by “and” are separate entries in the source; they are usually repeats but may differ in a detail not shown here. Equal values may be shown once. Inconclusive results and toxic doses are left out.

Tested on: BDF1 mice, P388 leukemia ip, median survival T/C
Assay: NCI In Vivo Anticancer Drug Screen. Data for tumor model P388 Leukemia (intraperitoneal) in B6D2F1 (BDF1) mice
Conditions: endpoint: median survival time, higher = longer survival
Procedure, shortened: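 T/C = treated-group survival ÷ vehicle-control survival; tumour transplanted into mice before dosing.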

[1] = dose: 100.0 mg/kg/injection, schedule: Q04DX003 (ip), vehicle: Klucel (hydroxypropylcellulose) (HPC)
[2] = dose: 200.0 mg/kg/injection, schedule: Q04DX003 (ip), vehicle: Klucel (hydroxypropylcellulose) (HPC)
[3] = dose: 50.0 mg/kg/injection, schedule: Q01DX009 (ip), vehicle: saline
[4] = dose: 100.0 mg/kg/injection, schedule: Q01DX009 (ip), vehicle: saline
[5] = dose: 200.0 mg/kg/injection, schedule: Q04DX003 (ip), vehicle: saline
[6] = dose: 12.5 mg/kg/injection, schedule: Q01DX009 (ip), vehicle: saline
[7] = dose: 25.0 mg/kg/injection, schedule: Q01DX009 (ip), vehicle: saline

Compound: NC(CSC(c1ccccc1)(c1ccccc1)c1ccc(F)cc1)C(=O)O (stereo not drawn)
- T/C (dose: 2.9 mg/kg/injection, schedule: Q01DX009 (ip), vehicle: Klucel (hydroxypropylcellulose) (HPC)): 107 % of control
- T/C (dose: 4.3 mg/kg/injection, schedule: Q01DX009 (ip), vehicle: Klucel (hydroxypropylcellulose) (HPC)): 123 % of control
- T/C (dose: 12.5 mg/kg/injection, schedule: Q01DX009 (ip), vehicle: Klucel (hydroxypropylcellulose) (HPC)): 170 % of control
- T/C (dose: 23.0 mg/kg/injection, schedule: Q01DX009 (ip), vehicle: Klucel (hydroxypropylcellulose) (HPC)): 216 % of control
- T/C (dose: 25.0 mg/kg/injection, schedule: Q01DX009 (ip), vehicle: Klucel (hydroxypropylcellulose) (HPC)): 227 % of control
- T/C (dose: 25.0 mg/kg/injection, schedule: Q04DX003 (ip), vehicle: Klucel (hydroxypropylcellulose) (HPC)): 170 % of control
- T/C (dose: 35.0 mg/kg/injection, schedule: Q01DX009 (ip), vehicle: Klucel (hydroxypropylcellulose) (HPC)): 222 % of control
- T/C (dose: 50.0 mg/kg/injection, schedule: Q01DX009 (ip), vehicle: Klucel (hydroxypropylcellulose) (HPC)): 255 % of control and 104 % of control and 209 % of control
- T/C (dose: 50.0 mg/kg/injection, schedule: Q04DX003 (ip), vehicle: Klucel (hydroxypropylcellulose) (HPC)): 180 % of control
- T/C (dose: 75.0 mg/kg/injection, schedule: Q01DX009 (ip), vehicle: Klucel (hydroxypropylcellulose) (HPC)): 90 % of control
- T/C (dose: 100.0 mg/kg/injection, schedule: Q01DX009 (ip), vehicle: Klucel (hydroxypropylcellulose) (HPC)): 194 % of control
- T/C [1]: 175 % of control and 185 % of control
- T/C (dose: 200.0 mg/kg/injection, schedule: Q01DX009 (ip), vehicle: Klucel (hydroxypropylcellulose) (HPC)): 100 % of control
- T/C [2]: 285 % of control and 205 % of control

Compound: NC(=S)c1ccc[n+](Cc2c(Cl)cccc2Cl)c1
- T/C (dose: 50.0 mg/kg/injection, schedule: Q04DX002 (ip), vehicle: saline with Tween-80): 110 % of control
- T/C (dose: 100.0 mg/kg/injection, schedule: Q04DX002 (ip), vehicle: saline with Tween-80): 101 % of control

Compound: CC1(C)N=C(N)N=C(N)N1c1ccc(OCC(=O)Nc2ccc(S(=O)(=O)F)cc2)c(Cl)c1
- T/C (dose: 44.0 mg/kg/injection, schedule: Q04DX003 (ip), vehicle: saline): 113 % of control
- T/C [3]: 190 % of control
- T/C (dose: 100.0 mg/kg/injection, schedule: Q01DX008 (ip), vehicle: saline): 195 % of control
- T/C [4]: 205 % of control
- T/C (dose: 132.0 mg/kg/injection, schedule: Q04DX003 (ip), vehicle: saline): 166 % of control and 200 % of control
- T/C (dose: 200.0 mg/kg/injection, schedule: Q01DX008 (ip), vehicle: saline): 200 % of control
- T/C [5]: 161 % of control and 215 % of control
- T/C (dose: 300.0 mg/kg/injection, schedule: Q04DX003 (ip), vehicle: saline): 245 % of control and 152 % of control

Compound: CN(C)CCCN1c2ccccc2Sc2ccc(F)cc21
- T/C (dose: 6.25 mg/kg/injection, schedule: Q01DX009 (ip), vehicle: saline): 104 % of control
- T/C [6]: 109 % of control
- T/C [7]: 122 % of control
- T/C (dose: 25.0 mg/kg/injection, schedule: Q04DX003 (ip), vehicle: saline): 104 % of control
- T/C (dose: 50.0 mg/kg/injection, schedule: Q04DX003 (ip), vehicle: saline): 118 % of control

Compound: Nc1ccc2c(c1)Cc1cc(Br)ccc1-2
- T/C [1]: 104 % of control
- T/C [2]: 100 % of control
- T/C (dose: 400.0 mg/kg/injection, schedule: Q04DX003 (ip), vehicle: Klucel (hydroxypropylcellulose) (HPC)): 100 % of control

Compound: O=C(N/N=C/c1cccc(S(=O)(=O)O)c1)c1ccncc1
- T/C (dose: 100.0 mg/kg/injection, schedule: Q01DX009 (ip), vehicle: saline with Tween-80): 97 % of control
- T/C (dose: 200.0 mg/kg/injection, schedule: Q01DX009 (ip), vehicle: saline with Tween-80): 86 % of control
- T/C (dose: 400.0 mg/kg/injection, schedule: Q01DX009 (ip), vehicle: saline with Tween-80): 94 % of control

Compound: Cc1ccc(C=C(C(=O)CCN(C)C)C(=O)CCN(C)C)cc1
- T/C (dose: 50.0 mg/kg/injection, schedule: Q01DX005 (ip), vehicle: saline): 87 % of control
- T/C (dose: 100.0 mg/kg/injection, schedule: Q01DX005 (ip), vehicle: saline): 109 % of control
- T/C (dose: 200.0 mg/kg/injection, schedule: Q01DX005 (ip), vehicle: saline): 119 % of control

Compound: NNc1cc(N)[nH]n1
- T/C [6]: 106 % of control
- T/C [7]: 100 % of control
- T/C [3]: 100 % of control
- T/C [4]: 93 % of control

Compound: CC1=NC(C(=O)O)C(=O)O1 (stereo not drawn)
- T/C [3]: 109 % of control
- T/C [4]: 104 % of control
- T/C (dose: 100.0 mg/kg/injection, schedule: Q04DX003 (ip), vehicle: saline): 95 % of control
- T/C (dose: 200.0 mg/kg/injection, schedule: Q01DX009 (ip), vehicle: saline): 100 % of control
- T/C [5]: 100 % of control
- T/C (dose: 400.0 mg/kg/injection, schedule: Q04DX003 (ip), vehicle: saline): 87 % of control
